Experimental data: US8404692B2, “Pyrimidin-4-yl-3, 4-dihydro-2H-pyrrolo [1,2A] pyrazin-1-one compounds” (Cyclacel Limited, priority 2005, dated 2013)

Biological target: T1, aurora-A (human) (Homo sapiens, UniProt O14965)
T1 construct: purchased Upstate, Dundee, UK
T1 sequence (O14965 1-403): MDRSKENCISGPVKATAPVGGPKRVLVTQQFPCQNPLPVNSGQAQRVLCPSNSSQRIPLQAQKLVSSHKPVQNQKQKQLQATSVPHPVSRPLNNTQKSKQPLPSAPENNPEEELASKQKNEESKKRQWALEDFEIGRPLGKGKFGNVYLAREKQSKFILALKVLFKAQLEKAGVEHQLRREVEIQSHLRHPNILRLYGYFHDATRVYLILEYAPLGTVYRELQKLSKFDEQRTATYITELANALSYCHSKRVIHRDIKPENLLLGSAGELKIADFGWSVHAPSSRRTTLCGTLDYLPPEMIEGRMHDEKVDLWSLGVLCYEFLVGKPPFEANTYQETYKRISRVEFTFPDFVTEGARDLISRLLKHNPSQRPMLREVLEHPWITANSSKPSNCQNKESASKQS
Test: Aurora-A (human) kinase assay
Assay type: biochemical
Details: read-out: Activity (Aurora A activity, IC50 grading)
Procedure: This was achieved by measurement of incorporation of radioactive phosphate from ATP into Kemptide substrate (LRRASLG), upon phosphorylation by commercially obtained aurora-A (human, Upstate; Dundee, UK). Assays were performed using 96-well plates and appropriate assay buffers (20 mM Tris, 25 mM β-glycerophosphate, 5 mM EGTA, 1 mM DTT, 1 mM sodium vanadate, pH 7.5), into which were added 2-5 ng of active enzyme with 500 μM substrate (Kemptide). The reactions were initiated by addition of MATP mix (15 mM MgCl2+100 μM ATP with 15-25 kBq per well of [γ-^32P]-ATP) and mixtures incubated for 30 min at 30° C. Reactions were stopped by addition of an equal volume of 75 mM aq orthophosphoric acid, followed by filtration through p81 filterplates (Whatman Polyfiltronics, Kent, UK). After washing 4 times with 75 mM aq orthophosphoric acid, plates were dried, scintillant added and incorporated radioactivity measured in a scintillation counter (TopCount, Packard Instruments, Pangbourne, Berks, UK). Compounds for kinase assay were made up as 10 mM stocks in DMSO and diluted into 10% DMSO in assay buffer. Data was analysed using curve-fitting software (XLfit version 4.0.2, IDBS, Guildford, Surrey, UK) to determine IC50 values (concentration of test compound which inhibits kinase activity by 50%).

Row | SMILES | IC50
1 | Cc1c(-c2ccnc(Nc3cccc(S(=O)(=O)N4CCCCC4)c3)n2)c(C)n2c1C(=O)NCC2 [Example I-95c, 6,8-Dimethyl-7-{2-[3-(piperidine-1-sulfonyl)-phenylamino]-pyrimidin-4-yl}-3,4-dihydro-2H-pyrrolo[1,2-a]pyrazin-1-one] | < 10000 nM
2 | Cc1ccc(F)cc1Nc1nccc(-c2c(C)c3n(c2C)CCNC3=O)n1 [Example I-88, 7-[2-(5-Fluoro-2-methyl-phenylamino)-pyrimidin-4-yl]-6,8-dimethyl-3,4-dihydro-2H-pyrrolo[1,2-a]pyrazin-1-one] | < 10000 nM
3 | CCOC(=O)c1c(C)nn(-c2ccc(Nc3nccc(-c4c(C)c5n(c4C)CCNC5=O)n3)cc2)c1C [Example I-92, 1-{4-[4-(6,8-Dimethyl-1-oxo-1,2,3,4-tetrahydro-pyrrolo[1,2-a]pyrazin-7-yl)-pyrimidin-2-ylamino]-phenyl}-3,5-dimethyl-1H-pyrazole-4-carboxylic acid ethyl ester] | < 10000 nM
4 | COc1ccc(Nc2nccc(-c3c(C)c4n(c3C)CCNC4=O)n2)c(OC)c1 [Example I-85, 7-[2-(2,4-Dimethoxy-phenylamino)-pyrimidin-4-yl]-6,8-dimethyl-3,4-dihydro-2H-pyrrolo[1,2-a]pyrazin-1-one] | < 10000 nM
5 | Cc1c(-c2ccnc(Nc3ccc(CC(=O)N4CCN(C)CC4)cc3)n2)c(C)n2c1C(=O)NCC2 [Example I-101, 6,8-Dimethyl-7-(2-{4-[2-(4-methyl-piperazin-1-yl)-2-oxo-ethyl]-phenylamino}-pyrimidin-4-yl)-3,4-dihydro-2H-pyrrolo[1,2-a]pyrazin-1-one] | < 100 nM
6 | Cc1c(-c2ccnc(Nc3cccc(CCC(=O)N(C)CCN(C)C)c3)n2)c(C)n2c1C(=O)NCC2 [Example I-106, N-(2-Dimethylamino-ethyl)-3-{3-[4-(6,8-dimethyl-1-oxo-1,2,3,4-tetrahydro-pyrrolo[1,2-a]pyrazin-7-yl)-pyrimidin-2-ylamino]-phenyl}-N-methyl-propionamide] | < 1000 nM
7 | CNS(=O)(=O)c1ccc(Nc2nccc(-c3c(C)c4n(c3C)CCNC4=O)n2)cc1OC [Example I-43, 4-[4-(6,8-Dimethyl-1-oxo-1,2,3,4-tetrahydropyrrolo[1,2-a]pyrazin-7-yl)-pyrimidin-2-ylamino]-2-methoxy-N-methyl-benzenesulfonamide] | < 1000 nM
8 | Cc1c(-c2ccnc(Nc3cccc(C(=O)c4ccccc4)c3)n2)c(C)n2c1C(=O)NCC2 [Example I-58, 7-[2-(3-Benzoyl-phenylamino)-pyrimidin-4-yl]-6,8-dimethyl-3,4-dihydro-2H-pyrrolo[1,2-a]pyrazin-1-one] | < 1000 nM
9 | CC(=O)Nc1ccc(Nc2nccc(-c3c(C)c4n(c3C)CCNC4=O)n2)cc1Cl [Example I-47, N-{2-Chloro-4-[4-(6,8-dimethyl-1-oxo-1,2,3,4-tetrahydro-pyrrolo[1,2-a]pyrazin-7-yl)-pyrimidin-2-ylamino]-phenyl}-acetamide] | < 1000 nM
10 | Cc1c(-c2ccnc(Nc3ccc(-c4csc(CC#N)n4)cc3)n2)c(C)n2c1C(=O)NCC2 [Example I-84] | < 1000 nM
11 | Cc1c(-c2ccnc(Nc3cccc(-c4cnco4)c3)n2)c(C)n2c1C(=O)NCC2 [Example I-49, 6,8-Dimethyl-7-[2-(3-oxazol-5-yl-phenylamino)-pyrimidin-4-yl]-3,4-dihydro-2H-pyrrolo[1,2-a]pyrazin-1-one] | < 1000 nM
12 | CC(=O)N1CCN(C(=O)Cc2ccc(Nc3nccc(-c4c(C)c5n(c4C)CCNC5=O)n3)cc2)CC1 [Example I-100, 7-(2-{4-[2-(4-Acetyl-piperazin-1-yl)-2-oxo-ethyl]-phenylamino}-pyrimidin-4-yl)-6,8-dimethyl-3,4-dihydro-2H-pyrrolo[1,2-a]pyrazin-1-one] | < 1000 nM

Next, values leading:

Row | IC50 | SMILES
13 | < 1000 nM | Cc1c(-c2ccnc(Nc3ccc(-c4cccnc4)cc3)n2)c(C)n2c1C(=O)NCC2 [Example I-78, 6,8-Dimethyl-7-[2-(4-pyridin-3-yl-phenylamino)-pyrimidin-4-yl]-3,4-dihydro-2H-pyrrolo[1,2-a]pyrazin-1-one]
14 | < 1000 nM | Cc1c(-c2ccnc(Nc3ccc4cn[nH]c4c3)n2)c(C)n2c1C(=O)NCC2 [Example I-11, 7-[2-(1H-Indazol-6-ylamino)-pyrimidin-4-yl]-6,8-dimethyl-3,4-dihydro-2H-pyrrolo[1,2-a]pyrazin-1-one]
15 | < 1000 nM | Cc1cc2cc(Nc3nccc(-c4c(C)c5n(c4C)CCNC5=O)n3)ccc2[nH]1 [Example I-48, 6,8-Dimethyl-7-[2-(2-methyl-1H-indol-5-ylamino)-pyrimidin-4-yl]-3,4-dihydro-2H-pyrrolo[1,2-a]pyrazin-1-one]
16 | < 1000 nM | COc1cc(Nc2nccc(-c3c(C)c4n(c3C)CCNC4=O)n2)ccc1S(=O)(=O)N1CCN(C)CC1 [Example I-24, 7-{2-[3-Methoxy-4-(4-methyl-piperazine-1-sulfonyl)-phenylamino]-pyrimidin-4-yl}-6,8-dimethyl-3,4-dihydro-2H-pyrrolo[1,2-a]pyrazin-1-one]
17 | < 1000 nM | Cc1c(-c2ccnc(Nc3ccc(N4CCOC4=O)cc3)n2)c(C)n2c1C(=O)NCC2 [Example I-44, 6,8-Dimethyl-7-{2-[4-(2-oxo-oxazolidin-3-yl)-phenylamino]-pyrimidin-4-yl}-3,4-dihydro-2H-pyrrolo[1,2-a]pyrazin-1-one]
18 | < 1000 nM | Cc1cc(C)n(-c2ccc(Nc3nccc(-c4c(C)c5n(c4C)CCNC5=O)n3)cc2)n1 [Example I-80, 7-{2-[4-(3,5-Dimethyl-pyrazol-1-yl)-phenylamino]-pyrimidin-4-yl}-6,8-dimethyl-3,4-dihydro-2H-pyrrolo[1,2-a]pyrazin-1-one]
19 | < 1000 nM | COc1cc(Nc2nccc(-c3c(C)c4n(c3C)CCNC4=O)n2)ccc1N1CCN(C(C)=O)CC1 [Example I-9, 7-{2-[4-(4-Acetyl-piperazin-1-yl)-3-methoxy-phenylamino]-pyrimidin-4-yl}-6,8-dimethyl-3,4-dihydro-2H-pyrrolo[1,2-a]pyrazin-1-one]
20 | < 100 nM | Cc1c(-c2ccnc(Nc3ccc(CC(=O)O)cc3)n2)c(C)n2c1C(=O)NCC2 [Example I-70, {4-[4-(6,8-dimethyl-1-oxo-1,2,3,4-tetrahydro-pyrrolo[1,2-a]pyrazin-7-yl)-pyrimidin-2-ylamino]-phenyl}-acetic acid]
21 | < 1000 nM | COc1ccc(Nc2nccc(-c3c(C)c4n(c3C)CCNC4=O)n2)cc1 [Example I-4, 7-[2-(4-Methoxy-phenylamino)-pyrimidin-4-yl]-6,8-dimethyl-3,4-dihydro-2H-pyrrolo[1,2-a]pyrazin-1-one]
22 | < 100 nM | COc1cc(Nc2nccc(-c3c(C)c4n(c3C)CCNC4=O)n2)ccc1S(=O)(=O)NC(C)C [Example I-18, 4-[4-(6,8-Dimethyl-1-oxo-1,2,3,4-tetrahydro-pyrrolo[1,2-a]pyrazin-7-yl)-pyrimidin-2-ylamino]-N-isopropyl-2-methoxy-benzenesulfonamide]
23 | < 100 nM | Cc1c(-c2ccnc(Nc3ccc4sc(C(=O)O)cc4c3)n2)c(C)n2c1C(=O)NCC2 [Example I-16, 5-[4-(6,8-Dimethyl-1-oxo-1,2,3,4-tetrahydro-pyrrolo[1,2-a]pyrazin-7-yl)-pyrimidin-2-ylamino]-benzo[b]thiophene-2-carboxylic acid]
